Laboratory results: the NIST ThermoML archive (doi:10.1021/je7003758)
Numbers after ± are expanded uncertainties.

conditions: 298.15 K; 100 kPa; Liquid

Structure (SMILES) | mass density
CCCCCl [1-chlorobutane] | 880.6 ± 0.3 kg/m3
CCCCCCCl [1-chlorohexane] | 873.1 ± 0.6 kg/m3
ClCCCl [1,2-dichloroethane] | 1245.5 ± 0.6 kg/m3
ClCCCCCCCl [1,6-dichlorohexane] | 1063.8 ± 1.4 kg/m3
CCCCCCCCCl [1-chlorooctane] | 868.8 ± 1.3 kg/m3
ClCCCCCl [1,4-dichlorobutane] | 1133.7 ± 3.4 kg/m3

same assay, conditions: 298.15 K; 10000 kPa; Liquid

mass density | Structure (SMILES)
1255.1 ± 1 kg/m3 | ClCCCl [1,2-dichloroethane]
